Blank lines part the entries; values can stand above or below the compound they belong to.
Experiments:
[1] = molecular target: Receptor tyrosine-protein kinase erbB-4 (Homo sapiens, UniProt Q15303); experiment: Selectivity interaction (Kinase panel (Invitrogen, enzymatic assay)) EUB0000623aCl ERBB4
[2] = molecular target: Mitogen-activated protein kinase kinase kinase 7 (Homo sapiens, UniProt O43318); experiment: Selectivity interaction (Kinase panel (Invitrogen, enzymatic assay)) EUB0000623aCl MAP3K7
[3] = molecular target: Cyclin-dependent kinase 2 (Homo sapiens, UniProt P24941); experiment: Selectivity interaction (Kinase panel (Invitrogen, enzymatic assay)) EUB0000623aCl CDK2
[4] = molecular target: Mitogen-activated protein kinase kinase kinase 1 (Homo sapiens, UniProt Q13233); experiment: Selectivity interaction (Kinase panel (Invitrogen, enzymatic assay)) EUB0000623aCl MAP3K1
[5] = molecular target: Mitogen-activated protein kinase 3 (Homo sapiens, UniProt P27361); experiment: Selectivity interaction (Kinase panel (Invitrogen, enzymatic assay)) EUB0000623aCl MAPK3
[6] = molecular target: Mitogen-activated protein kinase 8 (Homo sapiens, UniProt P45983); experiment: Selectivity interaction (Kinase panel (Invitrogen, enzymatic assay)) EUB0000623aCl MAPK8
Chain of Mitogen-activated protein kinase 8 (P45983 whole entry): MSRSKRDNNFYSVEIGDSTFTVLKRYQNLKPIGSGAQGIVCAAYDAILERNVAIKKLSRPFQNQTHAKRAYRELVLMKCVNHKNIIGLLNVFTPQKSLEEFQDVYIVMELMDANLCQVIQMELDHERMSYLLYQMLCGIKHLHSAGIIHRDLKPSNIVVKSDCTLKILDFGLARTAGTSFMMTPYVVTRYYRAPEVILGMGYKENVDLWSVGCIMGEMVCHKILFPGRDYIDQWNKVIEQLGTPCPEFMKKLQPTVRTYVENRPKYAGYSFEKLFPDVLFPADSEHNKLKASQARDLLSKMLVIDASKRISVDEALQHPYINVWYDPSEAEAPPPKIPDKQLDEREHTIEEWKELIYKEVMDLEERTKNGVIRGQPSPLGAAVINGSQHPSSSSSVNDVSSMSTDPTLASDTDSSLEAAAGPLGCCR

[7] = molecular target: T1, Mitogen-activated protein kinase 14 (Homo sapiens, UniProt Q16539); experiment: (§1) Selectivity interaction (Kinase panel (Invitrogen, enzymatic assay)) EUB0000623aCl MAPK14
T1 sequence (Q16539 whole entry): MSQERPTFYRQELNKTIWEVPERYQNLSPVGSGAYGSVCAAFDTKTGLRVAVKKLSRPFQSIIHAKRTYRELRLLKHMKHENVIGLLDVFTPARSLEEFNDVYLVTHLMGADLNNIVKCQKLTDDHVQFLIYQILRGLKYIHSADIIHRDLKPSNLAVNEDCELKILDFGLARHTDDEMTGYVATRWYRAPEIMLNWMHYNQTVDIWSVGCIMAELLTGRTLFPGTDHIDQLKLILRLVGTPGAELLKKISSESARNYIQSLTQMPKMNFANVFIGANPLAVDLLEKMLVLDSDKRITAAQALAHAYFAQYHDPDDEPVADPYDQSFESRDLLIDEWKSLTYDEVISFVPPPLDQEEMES

Ephrin type-A receptor 3 = Ephrin type-A receptor 3 (Homo sapiens, UniProt P29320); experiment: Selectivity interaction (Kinase panel (Invitrogen, enzymatic assay)) EUB0000623aCl EPHA3
[8] = molecular target: Epidermal growth factor receptor (Homo sapiens, UniProt P00533); experiment: Selectivity interaction (Kinase panel (Invitrogen, enzymatic assay)) EUB0000623aCl EGFR
Chain of Epidermal growth factor receptor (P00533 whole entry): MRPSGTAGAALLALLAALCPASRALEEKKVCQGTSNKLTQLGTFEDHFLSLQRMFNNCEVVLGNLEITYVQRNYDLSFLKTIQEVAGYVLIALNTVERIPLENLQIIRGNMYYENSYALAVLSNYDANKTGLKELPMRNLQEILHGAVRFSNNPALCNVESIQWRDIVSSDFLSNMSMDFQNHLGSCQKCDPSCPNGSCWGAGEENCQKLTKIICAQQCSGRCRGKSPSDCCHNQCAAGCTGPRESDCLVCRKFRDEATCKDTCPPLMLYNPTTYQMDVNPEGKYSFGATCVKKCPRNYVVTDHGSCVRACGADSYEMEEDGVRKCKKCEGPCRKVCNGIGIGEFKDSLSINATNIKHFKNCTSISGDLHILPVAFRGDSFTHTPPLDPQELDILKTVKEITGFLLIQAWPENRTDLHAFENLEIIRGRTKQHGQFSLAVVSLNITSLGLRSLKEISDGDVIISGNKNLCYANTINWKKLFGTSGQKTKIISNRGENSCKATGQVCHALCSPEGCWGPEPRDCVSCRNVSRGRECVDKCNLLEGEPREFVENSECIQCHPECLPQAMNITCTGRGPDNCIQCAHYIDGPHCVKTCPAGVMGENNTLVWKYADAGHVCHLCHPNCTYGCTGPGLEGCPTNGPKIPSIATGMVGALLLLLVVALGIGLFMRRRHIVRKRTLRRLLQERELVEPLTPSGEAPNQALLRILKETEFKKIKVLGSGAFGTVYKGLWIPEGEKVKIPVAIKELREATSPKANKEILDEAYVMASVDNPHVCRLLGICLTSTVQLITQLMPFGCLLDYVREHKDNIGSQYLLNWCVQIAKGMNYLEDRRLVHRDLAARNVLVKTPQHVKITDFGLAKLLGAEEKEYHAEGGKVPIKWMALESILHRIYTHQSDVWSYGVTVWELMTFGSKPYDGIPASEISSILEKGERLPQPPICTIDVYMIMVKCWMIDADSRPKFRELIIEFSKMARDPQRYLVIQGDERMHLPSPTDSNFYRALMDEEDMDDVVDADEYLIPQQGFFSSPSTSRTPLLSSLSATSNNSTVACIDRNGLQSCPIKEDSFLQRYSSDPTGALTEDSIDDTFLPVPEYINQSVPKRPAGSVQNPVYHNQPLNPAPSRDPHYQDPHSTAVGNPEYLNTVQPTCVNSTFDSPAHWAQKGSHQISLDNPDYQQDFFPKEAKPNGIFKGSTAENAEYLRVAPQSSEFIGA

[9] = molecular target: Protein kinase C theta type (Homo sapiens, UniProt Q04759); experiment: Selectivity interaction (Kinase panel (Invitrogen, enzymatic assay)) EUB0000623aCl PRKCQ
[10] = molecular target: T1, Mitogen-activated protein kinase 14; experiment: as §1; remark: listed apart in the source
[11] = molecular target: Macrophage-stimulating protein receptor (Homo sapiens, UniProt Q04912); experiment: Selectivity interaction (Kinase panel (Invitrogen, enzymatic assay)) EUB0000623aCl MST1R
Chain of Macrophage-stimulating protein receptor (Q04912 25-304 limits assumed): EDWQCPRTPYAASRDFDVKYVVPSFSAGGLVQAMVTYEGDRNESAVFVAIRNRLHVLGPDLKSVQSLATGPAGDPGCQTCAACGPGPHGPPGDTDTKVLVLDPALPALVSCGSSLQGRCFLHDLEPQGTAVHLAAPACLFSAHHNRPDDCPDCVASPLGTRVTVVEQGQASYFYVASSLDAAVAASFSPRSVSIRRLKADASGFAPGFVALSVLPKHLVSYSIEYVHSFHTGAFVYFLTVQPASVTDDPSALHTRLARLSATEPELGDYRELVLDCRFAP
Chain of Macrophage-stimulating protein receptor (Q04912 310-1400 limits assumed): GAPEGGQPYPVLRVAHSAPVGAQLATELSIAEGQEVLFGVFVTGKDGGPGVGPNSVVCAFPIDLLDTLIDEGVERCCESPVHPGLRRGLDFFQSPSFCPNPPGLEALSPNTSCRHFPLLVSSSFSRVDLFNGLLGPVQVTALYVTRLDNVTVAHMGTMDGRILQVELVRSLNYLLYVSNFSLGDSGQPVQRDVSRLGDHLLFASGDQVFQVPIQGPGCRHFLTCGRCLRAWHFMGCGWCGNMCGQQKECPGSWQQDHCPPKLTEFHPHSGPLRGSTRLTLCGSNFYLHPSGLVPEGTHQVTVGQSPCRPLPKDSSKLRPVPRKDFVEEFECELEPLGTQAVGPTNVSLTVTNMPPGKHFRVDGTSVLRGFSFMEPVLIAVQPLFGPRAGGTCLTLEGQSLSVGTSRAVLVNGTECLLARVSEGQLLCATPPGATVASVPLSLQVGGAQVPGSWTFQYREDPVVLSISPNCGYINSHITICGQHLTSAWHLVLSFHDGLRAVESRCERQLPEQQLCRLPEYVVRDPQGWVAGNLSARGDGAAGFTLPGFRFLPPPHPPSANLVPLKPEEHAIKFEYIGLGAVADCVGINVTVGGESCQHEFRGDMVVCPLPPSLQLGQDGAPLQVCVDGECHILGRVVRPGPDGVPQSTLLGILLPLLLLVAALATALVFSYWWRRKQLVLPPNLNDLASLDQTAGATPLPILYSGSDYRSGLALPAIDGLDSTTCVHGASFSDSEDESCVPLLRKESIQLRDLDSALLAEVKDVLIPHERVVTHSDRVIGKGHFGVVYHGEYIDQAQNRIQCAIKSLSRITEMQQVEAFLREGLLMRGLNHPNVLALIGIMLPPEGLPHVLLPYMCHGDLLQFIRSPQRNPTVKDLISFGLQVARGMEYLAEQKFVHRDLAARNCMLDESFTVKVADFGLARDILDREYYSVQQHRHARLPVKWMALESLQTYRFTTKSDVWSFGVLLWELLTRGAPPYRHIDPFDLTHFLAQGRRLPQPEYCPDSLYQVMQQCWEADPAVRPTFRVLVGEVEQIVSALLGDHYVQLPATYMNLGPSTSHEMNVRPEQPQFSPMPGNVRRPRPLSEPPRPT

[12] = molecular target: Glycogen synthase kinase-3 beta (Homo sapiens, UniProt P49841); experiment: Selectivity interaction (Kinase panel (Invitrogen, enzymatic assay)) EUB0000623aCl GSK3B
[13] = molecular target: Inhibitor of nuclear factor kappa-B kinase subunit beta (Homo sapiens, UniProt O14920); experiment: Selectivity interaction (Kinase panel (Invitrogen, enzymatic assay)) EUB0000623aCl IKBKB
[14] = molecular target: Sigma non-opioid intracellular receptor 1 (Homo sapiens) (UniProt Q99720); experiment: Selectivity interaction (GPCR panel (PDSP screen)) EUB0000318b SIGMAR1; settings: at 10 µM
Chain of Sigma non-opioid intracellular receptor 1 (Homo sapiens) (Q99720 whole entry): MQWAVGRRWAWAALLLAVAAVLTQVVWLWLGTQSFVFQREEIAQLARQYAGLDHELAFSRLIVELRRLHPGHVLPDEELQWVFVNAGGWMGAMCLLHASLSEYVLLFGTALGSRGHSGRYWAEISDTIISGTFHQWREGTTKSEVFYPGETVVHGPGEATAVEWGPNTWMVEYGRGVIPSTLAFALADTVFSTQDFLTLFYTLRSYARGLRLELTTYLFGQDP

[15] = molecular target: T2, Serine/threonine-protein kinase Nek1 (Homo sapiens) (UniProt Q96PY6); experiment: Selectivity interaction (KinomeScan (DiscoverX)) EUB0000318b NEK1; settings: at 1 µM
T2 sequence (whole entry): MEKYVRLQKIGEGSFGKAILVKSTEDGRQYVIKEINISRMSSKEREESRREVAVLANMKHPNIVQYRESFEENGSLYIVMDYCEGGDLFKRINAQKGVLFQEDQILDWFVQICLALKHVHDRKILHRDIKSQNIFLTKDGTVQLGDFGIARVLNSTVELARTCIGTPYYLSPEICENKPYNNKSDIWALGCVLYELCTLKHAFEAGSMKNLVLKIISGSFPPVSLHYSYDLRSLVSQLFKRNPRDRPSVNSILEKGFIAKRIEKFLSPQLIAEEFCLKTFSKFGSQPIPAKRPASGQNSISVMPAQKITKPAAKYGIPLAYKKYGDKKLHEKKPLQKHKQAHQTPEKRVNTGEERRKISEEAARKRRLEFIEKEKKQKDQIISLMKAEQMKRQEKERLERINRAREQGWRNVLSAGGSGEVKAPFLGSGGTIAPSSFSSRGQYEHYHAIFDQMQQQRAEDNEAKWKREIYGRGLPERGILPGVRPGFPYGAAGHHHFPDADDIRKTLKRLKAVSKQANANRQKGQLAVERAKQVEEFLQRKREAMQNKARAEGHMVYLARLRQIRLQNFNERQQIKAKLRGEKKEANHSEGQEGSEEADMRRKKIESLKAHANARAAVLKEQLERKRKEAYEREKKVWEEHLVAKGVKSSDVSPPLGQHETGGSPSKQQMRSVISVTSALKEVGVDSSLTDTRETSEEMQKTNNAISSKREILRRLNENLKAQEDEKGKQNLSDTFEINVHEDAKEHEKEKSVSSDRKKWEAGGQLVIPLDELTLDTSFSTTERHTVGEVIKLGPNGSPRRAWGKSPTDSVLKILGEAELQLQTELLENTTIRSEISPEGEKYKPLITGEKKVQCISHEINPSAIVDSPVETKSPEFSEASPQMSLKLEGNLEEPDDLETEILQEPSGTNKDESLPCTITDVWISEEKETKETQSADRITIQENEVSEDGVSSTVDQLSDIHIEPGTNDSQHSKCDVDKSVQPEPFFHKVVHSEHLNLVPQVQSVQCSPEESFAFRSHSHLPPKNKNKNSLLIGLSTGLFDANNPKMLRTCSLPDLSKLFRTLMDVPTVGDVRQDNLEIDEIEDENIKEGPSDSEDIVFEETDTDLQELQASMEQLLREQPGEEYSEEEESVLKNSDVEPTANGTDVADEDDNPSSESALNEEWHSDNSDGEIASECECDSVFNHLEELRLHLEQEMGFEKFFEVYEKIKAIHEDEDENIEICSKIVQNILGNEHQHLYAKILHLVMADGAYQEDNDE

[16] = molecular target: T3, 4-aminobutyrate aminotransferase, mitochondrial (Homo sapiens, UniProt P80404); experiment: (§2) Selectivity interaction (GPCR panel (PDSP screen)) EUB0000318b ABAT; settings: at 10 µM
T3 sequence (P80404 whole entry): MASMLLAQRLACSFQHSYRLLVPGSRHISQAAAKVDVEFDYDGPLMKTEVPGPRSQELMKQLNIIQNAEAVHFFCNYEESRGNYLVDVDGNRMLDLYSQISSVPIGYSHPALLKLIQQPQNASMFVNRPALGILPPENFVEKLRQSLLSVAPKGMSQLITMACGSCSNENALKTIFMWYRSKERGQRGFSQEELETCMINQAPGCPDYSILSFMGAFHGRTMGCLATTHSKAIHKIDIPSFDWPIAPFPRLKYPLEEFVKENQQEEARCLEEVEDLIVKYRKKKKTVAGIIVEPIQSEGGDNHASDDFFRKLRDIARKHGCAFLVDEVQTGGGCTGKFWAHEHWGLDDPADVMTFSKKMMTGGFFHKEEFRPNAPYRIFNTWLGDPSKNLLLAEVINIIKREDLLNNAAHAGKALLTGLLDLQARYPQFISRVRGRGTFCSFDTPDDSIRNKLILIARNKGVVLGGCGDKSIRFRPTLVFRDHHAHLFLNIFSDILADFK

[17] = molecular target: Sodium-dependent noradrenaline transporter (Homo sapiens, UniProt P23975); experiment: Selectivity interaction (CEREP selectivity screen) EUB0000318b SLC6A2; settings: at 10 µM
Chain of Sodium-dependent noradrenaline transporter (P23975 whole entry): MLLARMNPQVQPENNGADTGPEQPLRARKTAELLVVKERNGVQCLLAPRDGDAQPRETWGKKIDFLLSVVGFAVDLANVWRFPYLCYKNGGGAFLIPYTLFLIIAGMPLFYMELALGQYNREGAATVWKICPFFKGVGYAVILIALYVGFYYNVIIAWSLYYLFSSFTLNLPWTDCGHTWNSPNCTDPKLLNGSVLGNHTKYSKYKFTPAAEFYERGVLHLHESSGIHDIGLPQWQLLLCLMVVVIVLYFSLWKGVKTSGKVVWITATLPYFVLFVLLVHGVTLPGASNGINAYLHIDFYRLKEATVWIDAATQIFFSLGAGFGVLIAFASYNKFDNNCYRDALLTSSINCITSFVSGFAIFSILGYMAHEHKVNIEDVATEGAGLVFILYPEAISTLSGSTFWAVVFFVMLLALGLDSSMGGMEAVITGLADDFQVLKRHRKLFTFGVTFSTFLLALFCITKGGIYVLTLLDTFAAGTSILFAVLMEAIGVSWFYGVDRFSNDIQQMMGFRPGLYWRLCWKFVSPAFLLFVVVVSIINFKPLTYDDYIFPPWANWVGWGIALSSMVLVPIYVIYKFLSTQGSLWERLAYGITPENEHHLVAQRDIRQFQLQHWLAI

[18] = molecular target: Voltage-dependent L-type calcium channel subunit alpha-1C (Homo sapiens, UniProt Q13936); experiment: Selectivity interaction (CEREP selectivity screen) EUB0000318b CACNA1C; settings: at 10 µM
[19] = molecular target: T4, Mitogen-activated protein kinase kinase kinase 5 (Homo sapiens) (UniProt Q99683); experiment: Selectivity interaction (KinomeScan (DiscoverX)) EUB0000318b MAP3K5; settings: at 1 µM
T4 sequence (whole entry): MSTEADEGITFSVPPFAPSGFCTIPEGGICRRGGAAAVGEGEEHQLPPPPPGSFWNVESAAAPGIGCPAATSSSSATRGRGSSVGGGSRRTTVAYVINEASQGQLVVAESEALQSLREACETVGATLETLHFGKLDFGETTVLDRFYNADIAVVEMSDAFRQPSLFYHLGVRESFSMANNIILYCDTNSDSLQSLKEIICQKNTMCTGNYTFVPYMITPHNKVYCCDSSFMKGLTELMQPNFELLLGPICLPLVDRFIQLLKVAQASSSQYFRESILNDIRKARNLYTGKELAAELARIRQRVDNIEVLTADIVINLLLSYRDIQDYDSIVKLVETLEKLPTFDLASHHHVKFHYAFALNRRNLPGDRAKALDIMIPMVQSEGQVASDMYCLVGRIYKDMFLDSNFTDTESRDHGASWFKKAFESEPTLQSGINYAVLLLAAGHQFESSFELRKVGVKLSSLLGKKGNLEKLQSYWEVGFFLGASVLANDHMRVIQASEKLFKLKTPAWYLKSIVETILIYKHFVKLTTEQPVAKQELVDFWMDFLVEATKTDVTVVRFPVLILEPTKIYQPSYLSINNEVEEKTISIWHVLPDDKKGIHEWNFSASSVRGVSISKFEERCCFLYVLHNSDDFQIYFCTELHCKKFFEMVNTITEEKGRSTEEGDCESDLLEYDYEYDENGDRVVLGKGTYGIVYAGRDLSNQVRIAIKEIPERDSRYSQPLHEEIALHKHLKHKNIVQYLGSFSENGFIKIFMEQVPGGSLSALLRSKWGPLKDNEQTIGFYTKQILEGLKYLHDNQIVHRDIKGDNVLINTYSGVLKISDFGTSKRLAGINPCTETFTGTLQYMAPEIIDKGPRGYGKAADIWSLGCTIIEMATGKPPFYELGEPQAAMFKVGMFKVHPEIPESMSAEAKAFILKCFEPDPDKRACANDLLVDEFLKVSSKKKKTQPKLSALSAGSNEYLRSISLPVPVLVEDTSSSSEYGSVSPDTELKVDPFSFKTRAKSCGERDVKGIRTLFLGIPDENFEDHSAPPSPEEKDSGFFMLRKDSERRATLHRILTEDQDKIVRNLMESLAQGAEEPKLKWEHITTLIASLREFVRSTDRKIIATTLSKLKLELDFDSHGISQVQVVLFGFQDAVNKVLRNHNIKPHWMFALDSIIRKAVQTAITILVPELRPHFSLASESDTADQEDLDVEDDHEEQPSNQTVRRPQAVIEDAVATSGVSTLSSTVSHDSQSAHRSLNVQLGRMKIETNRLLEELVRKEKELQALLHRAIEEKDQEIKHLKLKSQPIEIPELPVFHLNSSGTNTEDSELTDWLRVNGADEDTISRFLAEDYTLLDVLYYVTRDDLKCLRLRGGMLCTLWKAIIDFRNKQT

[20] = molecular target: Sodium channel regulatory subunit beta-1 (Homo sapiens) (UniProt Q07699); experiment: Selectivity interaction (CEREP selectivity screen) EUB0000318b SCN1B; settings: at 10 µM
Chain of Sodium channel regulatory subunit beta-1 (Homo sapiens) (Q07699 whole entry): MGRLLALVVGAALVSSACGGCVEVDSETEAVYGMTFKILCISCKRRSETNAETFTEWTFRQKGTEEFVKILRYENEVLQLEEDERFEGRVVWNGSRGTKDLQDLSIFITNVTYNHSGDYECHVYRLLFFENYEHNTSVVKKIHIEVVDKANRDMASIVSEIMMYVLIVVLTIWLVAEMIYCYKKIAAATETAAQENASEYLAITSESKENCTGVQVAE

[21] = molecular target: T3, 4-aminobutyrate aminotransferase, mitochondrial; experiment: as §2
[22] = molecular target: 5-hydroxytryptamine receptor 2A (Homo sapiens, UniProt P28223); experiment: Selectivity interaction (CEREP selectivity screen) EUB0000318b HTR2A; settings: at 10 µM

IC50 [1]: > 20 µM
IC50 [2]: > 10 µM
IC50 [3]: 0.158 µM
IC50 [4]: > 10 µM
IC50 [5]: > 10 µM
IC50 [6]: > 10 µM
IC50 [7]: > 20 µM
IC50 (Ephrin type-A receptor 3): > 20 µM
IC50 [8]: > 20 µM
IC50 [9]: > 10 µM
IC50 [10]: > 10 µM
IC50 [11]: > 20 µM
IC50 [12]: > 10 µM
IC50 [13]: > 10 µM
SMILES: CC(C)(C)c1ccc(C(=O)Nc2cn3cc(-n4ccnc4)ccc3n2)cc1

% of inhibition [14]: 51.2%
% of control [15]: 44%
% of inhibition [16]: 63.7%
% of inhibition [17]: 61%
% of inhibition [18]: 80%
% of control [19]: 13%
% of inhibition [20]: 66%
Ki [21]: 2.56 µM
% of inhibition [22]: 55%
SMILES: O=C(NC[C@@H]1[C@H]2CN(C(=O)OCc3cc(C(F)(F)F)cc(C(F)(F)F)c3)C[C@@H]12)c1ccc2[nH]nnc2c1 [BI 2545]

Reference: ChEMBL document CHEMBL5465560, “Selectivity Literature for EUbOPEN Chemogenomic Library” (2024)
